Results on 19 molecules are retold here after patent publication US20180297966A1, “COMPOUNDS, COMPOSITIONS, AND METHODS OF MAKING AND USING THE SAME” (INNOVATIVE ANESTHETICS, LLC, priority 2015, published 2018).

Series [1] is described as follows: pH of exemplary salts with respect to concentration (% w/v). The series is classed as physicochemical.
For the next series, the system named is rats (hindpaw heat pain). Put plainly: Hindpaw withdrawal latency to a thermal stimulus after injection of a caine salt. The series is classed as in vivo, Sprague Dawley rats. The following applies: 1% by weight solution in water, 100 μl injected into hindpaw of rats, 10 minutes post-injection, compared to naïve animals, N=10 animals/group, cutoff 32 seconds. The procedure:
Male Sprague Dawley® rats (200-300 g, Charles River) were housed in groups of two and were maintained in a standard 12-h light/dark cycle and testing was completed in the light portion of the cycle between 09:00-12:00. Animals were placed into the behavioural procedure room 30 min prior to testing to acclimate. When not in testing sessions, food and water were made available ad libitum. Animal testing procedures complied with the ethical guidelines and standards established by the University of Florida's Institutional Animal Care & Use Committee and with the Guide for Care and Use of Laboratory Animals (National Research Council Guide for the Care and Use of Laboratory Animals. Washington, D.C., National Academy Press; 1996.).
1% by weight solutions of 3a-3h were injected into the hindpaw of rats and withdrawal latency to a thermal stimulus was recorded 10 minutes post-injection. Response to hindpaw heat pain was determined by placing unrestrained rats on a clear glass platform under a small plastic cage and rats habituated for 5 min. A radiant heat source was aimed directly under the ventral hindpaw surface and the time to paw withdrawal was recorded. Baseline responses were obtained under naïve conditions (e.g., no injection), while post-treatment effects of caine salts 3a-3h in the respective vehicle (water) were assessed for 10 minutes following injection (100 μl). A cutoff of 32 seconds was used to prevent tissue damage.

Where “and” joins values, the source holds several entries; their conditions need not be identical. Equal values may be shown once. Where a name gives a salt, the structure may show the parent alone. Read-outs that look alike come from different tables or passages of the source.

`CCCNC(C)C(=O)Nc1c(C)csc1C(=O)OC` (stereo not shown) [Articaine hydrochloride, reference compound]: the pH was found to be 4.78 in series [1] (Conc. 2% w/v), 4.62 in series [1] (Conc. 5% w/v) and 4.22 in series [1] (Conc. 10% w/v).
Regarding `CCCNC(C)C(=O)Nc1c(C)csc1C(=O)OC.O=C1NS(=O)(=O)c2ccccc21` (stereo not shown) [Articaine saccharinate, Articaine Saccharinate], in series [1], the pH is 3.83 and 4.15. For the same molecule, the “withdrawal latency to a thermal stimulus” value in the series with rats (hindpaw heat pain) is on record as “significant increase in latency time”.
As to `CC1=CC(=O)NS(=O)(=O)O1.CCCCN1CCCCC1C(=O)Nc1c(C)cccc1C` (stereo not shown) [Bupivacaine acesulfamate, Bupivacaine Acesulfamate], the pH in series [1] is 4.25 and 5.13 and 5.38. Moreover, in the series on rats (hindpaw heat pain), the “withdrawal latency to a thermal stimulus” value is “significant increase in latency time”.
`CCCCN1CCCCC1C(=O)Nc1c(C)cccc1C` (stereo not shown) [Bupivacaine hydrochloride, reference compound]: the pH is listed as 5.22 in series [1] (Conc. 2% w/v), 4.81 in series [1] (Conc. 5% w/v) and 4.23 in series [1] (Conc. 10% w/v).
Consider `CCCCN1CCCCC1C(=O)Nc1c(C)cccc1C.O=C1NS(=O)(=O)c2ccccc21` (stereo not shown) [Bupivacaine saccharinate, Bupivacaine Saccharinate], for which, in series [1], the pH is 3.84 and 3.66 and 5.19. Further, the “withdrawal latency to a thermal stimulus” value in the series with rats (hindpaw heat pain) is reported as “significant increase in latency time”.
With `CC1=CC(=O)NS(=O)(=O)O1.CNC[C@H](O)c1ccc(O)c(O)c1` [Epinephrine acesulfamate, Epinephrine Acesulfamate], in series [1], the pH was 4.01 and 4.14 and 4.34.
Regarding `CNC[C@H](O)c1ccc(O)c(O)c1` [Epinephrine hydrochloride, reference compound], the results for the pH in series [1] (Conc. 2% w/v), in series [1] (Conc. 5% w/v) and in series [1] (Conc. 10% w/v) were 4.84, 3.91 and 2.72, respectively.
Consider `CNC[C@H](O)c1ccc(O)c(O)c1.O=C1NS(=O)(=O)c2ccccc21` [Epinephrine saccharinate, Epinephrine Saccharinate], for which the pH in series [1] is 3.57 and 4.03 and 4.41.
Consider `CC1=CC(=O)NS(=O)(=O)O1.CCN(CC)CC(=O)Nc1c(C)cccc1C` [Lidocaine acesulfamate], for which the pH in series [1] is 4.84 and 5.08 and 5.26.
On to `CCN(CC)CC(=O)Nc1c(C)cccc1C` [Lidocaine hydrochloride, reference compound], for which the values for the pH in series [1] (Conc. 2% w/v), in series [1] (Conc. 5% w/v) and in series [1] (Conc. 10% w/v) were 4.65, 4.53 and 3.94, respectively.
In the case of `CCN(CC)CC(=O)Nc1c(C)cccc1C.O=C1NS(=O)(=O)c2ccccc21` [Lidocaine saccharinate], in series [1], the pH was 4.31 and 4.41 and 4.51.
`CC1=CC(=O)NS(=O)(=O)O1.Cc1cccc(C)c1NC(=O)C1CCCCN1C` (stereo not shown) [Mepivacaine acesulfamate]: the pH came out at 4.91 in series [1] (Conc. 2% w/v), 4.87 in series [1] (Conc. 5% w/v) and 4.00 in series [1] (Conc. 10% w/v). Besides, the “withdrawal latency to a thermal stimulus” value with rats (hindpaw heat pain) was “significant increase in latency time”.
In the case of `Cc1cccc(C)c1NC(=O)C1CCCCN1C` (stereo not shown) [Mepivacaine hydrochloride, reference compound], the pH is reported as 4.53 in series [1] (Conc. 2% w/v), 3.77 in series [1] (Conc. 5% w/v) and 3.73 in series [1] (Conc. 10% w/v).
As to `Cc1cccc(C)c1NC(=O)C1CCCCN1C.O=C1NS(=O)(=O)c2ccccc21` (stereo not shown) [Mepivacaine saccharinate, Mepivacaine Saccharinate], the pH in series [1] was 4.06 and 4.23. For the same molecule, in the series on rats (hindpaw heat pain), the “withdrawal latency to a thermal stimulus” value is on record as “significant increase in latency time”.
Consider `CC1=CC([O-])=NS(=O)(=O)O1.[K+]` [Potassium acesulfamate, potassium 6-methyl-1,2,3-oxathiazin-4-olate 2,2-dioxide, reference compound], for which the pH in series [1] (Conc. 2% w/v) came to 5.98; in series [1] (Conc. 5% w/v), 6.33; in series [1] (Conc. 10% w/v), 5.78.
As for `CC1=CC(=O)NS(=O)(=O)O1.CCCNC(C)C(=O)Nc1ccccc1C` (stereo not shown) [Prilocaine acesulfamate, Prilocaine Acesulfamate], the results for the pH in series [1] (Conc. 2% w/v), in series [1] (Conc. 5% w/v) and in series [1] (Conc. 10% w/v) were 5.16, 5.00 and 4.71, respectively. Besides, the “withdrawal latency to a thermal stimulus” value in the series with rats (hindpaw heat pain) was “significant increase in latency time”.
On to `CCCNC(C)C(=O)Nc1ccccc1C` (stereo not shown) [Prilocaine hydrochloride, reference compound], for which the values for the pH in series [1] (Conc. 2% w/v), in series [1] (Conc. 5% w/v) and in series [1] (Conc. 10% w/v) were 4.60, 3.42 and 2.10, respectively.
In the case of `CCCNC(C)C(=O)Nc1ccccc1C.O=C1NS(=O)(=O)c2ccccc21` (stereo not shown) [Prilocaine saccharinate, Prilocaine Saccharinate], in series [1], the pH was 4.47 and 4.96 and 5.04.
With Articaine Acesulfamate, the “withdrawal latency to a thermal stimulus” value in the series on rats (hindpaw heat pain) is reported as “significant increase in latency time”.
